The text below walks through data of patent US7368578B2, “Five-membered heterocyclic compounds” (Takeda Pharmaceutical Company Limited, priority 2002, dated 2008).

Regarding `CCc1nc(/C=C/c2cn(-c3ccccc3)nc2OCc2ccc(OCc3nc(-c4ccc(C(=O)O)s4)oc3C)c(OC)c2)cs1` [Example 331, 5-[4-({4-[({4-[(E)-2-(2-ethyl-1,3-thiazol-4-yl)ethenyl]-1-phenyl-1H-pyrazol-3-yl}oxy)methyl]-2-methoxyphenoxy}methyl)-5-methyl-1,3-oxazol-2-yl]thiophene-2-carboxylic acid], the melting point fell in the range of 150 to 151 °C.

For `COc1cc(COc2nn(-c3ccccc3)cc2C=O)ccc1OCc1nc(-c2cccc(C#N)c2)oc1C` [Example 332, 3-{4-[(4-{[(4-formyl-1-phenyl-1H-pyrazol-3-yl)oxy]methyl)-2-methoxyphenoxy}methyl]-5-methyl-1,3-oxazol-2-yl}benzonitrile], the melting point was in the range of 161 to 162 °C.

Turning to `CCOC(=O)Cc1ccc(-c2nc(COc3ccc(COc4nn(-c5ccccc5)cc4/C=C/c4csc(CC)n4)cc3OC)c(C)o2)cc1` [Example 338, ethyl {4-[4-({4-[({4-[(E)-2-(2-ethyl-1,3-thiazol-4-yl)ethenyl]-1-phenyl-1H-pyrazol-3-yl}oxy)methyl]-2-methoxyphenoxy}methyl)-5-methyl-1,3-oxazol-2-yl]phenyl}acetate], the melting point was in the range of 140 to 141 °C.

In turn, `CCOC(=O)Cc1ccc(-c2nc(COc3ccc(COc4nn(-c5ccccc5)cc4/C=C\c4csc(CC)n4)cc3OC)c(C)o2)cc1` [Example 338, ethyl {4-[4-({4-[({4-[(Z)-2-(2-ethyl-1,3-thiazol-4-yl)ethenyl]-1-phenyl-1H-pyrazol-3-yl}oxy)methyl]-2-methoxyphenoxy}methyl)-5-methyl-1,3-oxazol-2-yl]phenyl}acetate] had a melting point of 136 to 137 °C.

With `CCOC(=O)Cc1ccc(-c2nc(COc3ccc(COc4nn(-c5ccccc5)cc4/C=C/c4cncn4CC)cc3OC)c(C)o2)cc1` [Example 340, ethyl {4-[4-({4-[({4-[(E)-2-(1-ethyl-1H-imidazol-5-yl)ethenyl]-1-phenyl-1H-pyrazol-3-yl}oxy)methyl]-2-methoxyphenoxy)methyl)-5-methyl-1,3-oxazol-2-yl]phenyl}acetate], the melting point is 134 to 135 °C.

In turn, `CCOC(=O)Cc1ccc(-c2nc(COc3ccc(COc4nn(-c5ccccc5)cc4/C=C\c4cncn4CC)cc3OC)c(C)o2)cc1` [Example 340, ethyl {4-[4-({4-[({4-[(Z)-2-(1-ethyl-1H-imidazol-5-yl)ethenyl]-1-phenyl-1H-pyrazol-3-yl}oxy)methyl]-2-methoxyphenoxy}methyl)-5-methyl-1,3-oxazol-2-yl]phenyl}acetate] returned a melting point of 85 to 86 °C.

On to `CCOC(=O)Cc1ccc(-c2nc(COc3ccc(COc4nn(-c5ccccc5)cc4/C=C/c4cn(CC)cn4)cc3OC)c(C)o2)cc1` [Example 343, ethyl (4-{4-[(4-[({4-[(E)-2-(1-ethyl-1H-imidazol-4-yl)ethenyl]-1-phenyl-1H-pyrazol-3-yl}oxy)methyl]-2-methoxyphenoxy)methyl]-5-methyl-1,3-oxazol-2-yl}phenyl)acetate], for which the melting point was 140 to 141 °C.

In turn, `CCOC(=O)Cc1ccc(-c2nc(COc3ccc(COc4nn(-c5ccccc5)cc4/C=C\c4cnn(CC)c4)cc3OC)c(C)o2)cc1` [Example 346, ethyl {4-[4-({4-[({4-[(Z)-2-(1-ethyl-1H-pyrazol-4-yl)ethenyl]-1-phenyl-1H-pyrazol-3-yl}oxy)methyl]-2-methoxyphenoxy}methyl)-5-methyl-1,3-oxazol-2-yl]phenyl}acetate] yielded a melting point of 140 to 141 °C.

The molecule `COc1cc(CN(C)c2nn(-c3ccccc3)cc2C=O)ccc1OCc1nc(-c2ccco2)oc1C` [Example 349, 3-([4-{[2-(2-furyl)-5-methyl-1,3-oxazol-4-yl]methoxy}-3-methoxybenzyl](methyl)amino)-1-phenyl-1H-pyrazole-4-carbaldehyde] came in with a melting point of 101 to 102 °C.

The molecule `CCOC(=O)Cc1ccc(-c2nc(COc3ccc(COc4nn(-c5ccccc5)cc4/C=C/c4csc(C)n4)cc3OC)c(C)o2)cc1` [Example 356, ethyl {4-[4-({2-methoxy-4-[({4-[(E)-2-(2-methyl-1,3-thiazol-4-yl)ethenyl]-1-phenyl-1H-pyrazol-3-yl}oxy)methyl]phenoxy}methyl)-5-methyl-1,3-oxazol-2-yl]phenyl}acetate] yielded a melting point of 153 to 155 °C.

Molecule `CCOC(=O)Cc1ccc(-c2nc(COc3ccc(COc4nn(-c5ccccc5)cc4/C=C/c4csc(C(C)C)n4)cc3OC)c(C)o2)cc1` [Example 360, ethyl {4-[4-({4-[({4-[(E)-2-(2-isopropyl-1,3-thiazol-4-yl)ethenyl]-1-phenyl-1H-pyrazol-3-yl}oxy)methyl]-2-methoxyphenoxy}methyl)-5-methyl-1,3-oxazol-2-yl]phenyl}acetate] showed a melting point of 89 to 90 °C.

`CCOC(=O)Cc1ccc(-c2nc(COc3ccc(COc4nn(-c5ccccc5)cc4/C=C\c4csc(C(C)C)n4)cc3OC)c(C)o2)cc1` [Example 360, ethyl {4-[4-({4-[({4-[(Z)-2-(2-isopropyl-1,3-thiazol-4-yl)ethenyl]-1-phenyl-1H-pyrazol-3-yl}oxy)methyl]-2-methoxyphenoxy}methyl)-5-methyl-1,3-oxazol-2-yl]phenyl}acetate] registered a melting point of 126 to 127 °C.

Take `COc1cc(COc2nn(-c3ccccc3)cc2/C=C/c2csc(CO)n2)ccc1OCc1nc(-c2ccc(CC(=O)O)cc2)oc1C` [Example 365, (4-{4-[(4-{[(4-{(E)-2-[2-(hydroxymethyl)-1,3-thiazol-4-yl]ethenyl}-1-phenyl-1H-pyrazol-3-yl)oxy]methyl}-2-methoxyphenoxy)methyl]-5-methyl-1,3-oxazol-2-yl}phenyl)acetic acid]: the melting point fell in the range of 204 to 205 °C.

Turning to `CCOC(=O)Cc1ccc(-c2nc(COc3ccc(COc4nn(-c5ccccc5)cc4/C=C/c4coc(CC)n4)cc3OC)c(C)o2)cc1` [Example 366, ethyl {4-[4-({4-[({4-[(E)-2-(2-ethyl-1,3-oxazol-4-yl)ethenyl]-1-phenyl-1H-pyrazol-3-yl}oxy)methyl]-2-methoxyphenoxy}methyl)-5-methyl-1,3-oxazol-2-yl]phenyl}acetate], the melting point is 155 to 157 °C.

Consider `CCOC(=O)Cc1ccc(-c2nc(COc3ccc(COc4nn(-c5ccccc5)cc4/C=C/c4coc(C(C)C)n4)cc3OC)c(C)o2)cc1` [Example 367, ethyl {4-[4-({4-[({4-[(E)-2-(2-isopropyl-1,3-oxazol-4-yl)ethenyl]-1-phenyl-1H-pyrazol-3-yl}oxy)methyl]-2-methoxyphenoxy}methyl)-5-methyl-1,3-oxazol-2-yl]phenyl}acetate], for which the melting point was in the range of 106 to 108 °C.

For `CCOC(=O)Cc1ccc(-c2nc(COc3ccc(COc4nn(-c5ccccc5)cc4/C=C/c4coc(C(C)(C)C)n4)cc3OC)c(C)o2)cc1` [Example 368, ethyl {4-[4-({4-[({4-[(E)-2-(2-tert-butyl-1,3-oxazol-4-yl)ethenyl]-1-phenyl-1H-pyrazol-3-yl}oxy)methyl]-2-methoxyphenoxy}methyl)-5-methyl-1,3-oxazol-2-yl]phenyl}acetate], the melting point is 126 to 129 °C.

The molecule `CCc1nc(/C=C/c2cn(-c3ccccc3)nc2OCc2ccc(OCc3nc(-c4cccc(C#N)c4)oc3C)c(OC)c2)cs1` [Example 372, 3-[4-({4-[({4-[(E)-2-(2-ethyl-1,3-thiazol-4-yl)ethenyl]-1-phenyl-1H-pyrazol-3-yl}oxy)methyl]-2-methoxyphenoxy}methyl)-5-methyl-1,3-oxazol-2-yl]benzonitrile] had a melting point of 138 to 140 °C.
